Measured values published in patent US12343326B2, “Psychoactive medicines and their use for treating psychiatric and neurological conditions and disorders” (Transcend Therapeutics, Inc., priority 2021, dated 2025).

Key:
Test in all cases: β-arrestin based GPCR screen (PathHunter / GPCRmax), antagonist mode
[1] = target: 168 GPCRs (Homo sapiens, UniProt P49019); conditions: GPR109B
[2] = target: 168 GPCRs (Homo sapiens, UniProt P30559); conditions: OXTR
[3] = target: 168 GPCRs (Homo sapiens, UniProt P49190)
[4] = target: 168 GPCRs (Homo sapiens, UniProt P25116); conditions: F2R; Antagonist; 1 uM
[5] = target: 168 GPCRs (Homo sapiens, UniProt P29371)
[6] = target: 168 GPCRs (Homo sapiens, UniProt P25024)
[7] = tested on: 168 GPCRs
[8] = target: 168 GPCRs (Homo sapiens, UniProt P41586); conditions: ADCYAP1R1, Antagonist
[9] = target: 168 GPCRs (Homo sapiens, UniProt P22888); conditions: LHCGR
[10] = target: 168 GPCRs (Homo sapiens, UniProt P30989)
[11] = target: 168 GPCRs (Homo sapiens, UniProt P48546); conditions: GIPR
[12] = target: 168 GPCRs (Homo sapiens, UniProt P47872); conditions: SCTR
[13] = target: 168 GPCRs (Homo sapiens, UniProt Q03431)
[14] = target: 168 GPCRs (Homo sapiens, UniProt P48145)
[15] = target: T1, 168 GPCRs (Homo sapiens, UniProt Q9Y5Y4)
T1 sequence (Q9Y5Y4 1-395): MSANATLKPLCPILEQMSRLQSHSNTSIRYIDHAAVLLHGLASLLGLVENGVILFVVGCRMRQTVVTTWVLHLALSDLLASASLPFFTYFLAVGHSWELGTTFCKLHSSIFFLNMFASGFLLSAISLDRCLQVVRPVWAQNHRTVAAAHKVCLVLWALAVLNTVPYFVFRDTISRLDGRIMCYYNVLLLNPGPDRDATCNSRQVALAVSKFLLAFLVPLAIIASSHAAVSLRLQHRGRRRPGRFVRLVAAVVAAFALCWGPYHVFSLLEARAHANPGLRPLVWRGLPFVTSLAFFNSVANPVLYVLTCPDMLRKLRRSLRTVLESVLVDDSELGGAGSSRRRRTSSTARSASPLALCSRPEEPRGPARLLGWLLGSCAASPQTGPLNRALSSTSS

[16] = target: 168 GPCRs (Homo sapiens, UniProt P41587)
[17] = target: 168 GPCRs (Homo sapiens, UniProt P49683); conditions: PRLHR
[18] = target: 168 GPCRs (Homo sapiens, UniProt Q8TCW9)
[19] = target: 168 GPCRs (Homo sapiens, UniProt P41231)
[20] = target: 168 GPCRs (Homo sapiens, UniProt P28566); conditions: HTR1E

168 GPCRs (Homo sapiens, UniProt P41587), sequence (P41587 24-438): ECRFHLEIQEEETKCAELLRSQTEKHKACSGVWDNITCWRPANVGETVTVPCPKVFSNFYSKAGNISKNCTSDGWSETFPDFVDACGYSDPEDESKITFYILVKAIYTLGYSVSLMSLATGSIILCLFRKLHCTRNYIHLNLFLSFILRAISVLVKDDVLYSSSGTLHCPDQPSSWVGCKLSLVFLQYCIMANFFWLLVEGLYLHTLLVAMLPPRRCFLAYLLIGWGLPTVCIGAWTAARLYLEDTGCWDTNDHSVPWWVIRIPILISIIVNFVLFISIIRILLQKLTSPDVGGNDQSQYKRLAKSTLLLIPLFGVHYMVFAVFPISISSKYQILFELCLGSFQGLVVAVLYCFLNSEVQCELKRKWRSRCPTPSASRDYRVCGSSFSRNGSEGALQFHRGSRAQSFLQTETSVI
168 GPCRs (Homo sapiens, UniProt P30989), sequence (P30989 whole entry): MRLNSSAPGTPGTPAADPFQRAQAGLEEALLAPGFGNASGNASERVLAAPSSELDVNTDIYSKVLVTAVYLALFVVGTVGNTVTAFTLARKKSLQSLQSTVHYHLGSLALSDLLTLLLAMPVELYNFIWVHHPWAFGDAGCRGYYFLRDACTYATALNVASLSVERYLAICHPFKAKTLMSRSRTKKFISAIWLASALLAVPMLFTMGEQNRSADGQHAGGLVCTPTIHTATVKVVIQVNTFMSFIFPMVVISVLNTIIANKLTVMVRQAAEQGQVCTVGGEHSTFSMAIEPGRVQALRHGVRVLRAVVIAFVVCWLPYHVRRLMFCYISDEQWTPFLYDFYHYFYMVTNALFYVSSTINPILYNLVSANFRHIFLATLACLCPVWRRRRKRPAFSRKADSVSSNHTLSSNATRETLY
168 GPCRs (Homo sapiens, UniProt P49683), sequence (P49683 whole entry): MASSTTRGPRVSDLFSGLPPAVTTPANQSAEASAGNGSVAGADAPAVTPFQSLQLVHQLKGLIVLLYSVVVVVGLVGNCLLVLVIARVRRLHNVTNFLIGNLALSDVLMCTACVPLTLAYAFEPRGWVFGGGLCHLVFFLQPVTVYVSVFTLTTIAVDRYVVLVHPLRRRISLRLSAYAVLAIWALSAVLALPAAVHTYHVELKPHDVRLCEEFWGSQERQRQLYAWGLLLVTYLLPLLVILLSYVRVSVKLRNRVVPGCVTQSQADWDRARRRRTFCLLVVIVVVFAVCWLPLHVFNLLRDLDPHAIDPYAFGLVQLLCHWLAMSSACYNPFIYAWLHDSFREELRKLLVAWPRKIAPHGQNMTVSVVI
168 GPCRs (Homo sapiens, UniProt P48546), sequence (P48546 22-466): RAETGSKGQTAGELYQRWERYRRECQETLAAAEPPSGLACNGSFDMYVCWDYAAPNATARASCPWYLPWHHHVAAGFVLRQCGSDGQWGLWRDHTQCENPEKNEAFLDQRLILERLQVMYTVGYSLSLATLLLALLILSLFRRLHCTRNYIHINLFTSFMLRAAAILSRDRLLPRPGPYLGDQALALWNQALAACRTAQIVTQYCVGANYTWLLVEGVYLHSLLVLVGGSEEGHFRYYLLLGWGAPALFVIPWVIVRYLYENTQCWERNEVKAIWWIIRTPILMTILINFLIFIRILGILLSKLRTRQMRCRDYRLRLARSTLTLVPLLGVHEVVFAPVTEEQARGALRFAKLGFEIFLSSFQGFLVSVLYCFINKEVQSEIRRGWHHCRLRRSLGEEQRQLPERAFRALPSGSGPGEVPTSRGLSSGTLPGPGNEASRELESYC
168 GPCRs (Homo sapiens, UniProt P49019), sequence (P49019 whole entry): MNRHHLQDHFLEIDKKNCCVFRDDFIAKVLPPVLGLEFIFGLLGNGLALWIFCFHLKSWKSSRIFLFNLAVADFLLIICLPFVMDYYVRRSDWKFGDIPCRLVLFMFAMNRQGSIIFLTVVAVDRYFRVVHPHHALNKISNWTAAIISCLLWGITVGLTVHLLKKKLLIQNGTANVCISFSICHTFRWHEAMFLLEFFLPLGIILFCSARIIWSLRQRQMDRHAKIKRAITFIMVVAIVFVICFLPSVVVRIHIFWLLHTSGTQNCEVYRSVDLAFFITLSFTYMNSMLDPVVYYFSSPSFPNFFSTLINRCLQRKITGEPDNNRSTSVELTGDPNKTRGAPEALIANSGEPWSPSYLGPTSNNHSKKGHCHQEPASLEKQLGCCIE
168 GPCRs (Homo sapiens, UniProt P41231), sequence (P41231 whole entry): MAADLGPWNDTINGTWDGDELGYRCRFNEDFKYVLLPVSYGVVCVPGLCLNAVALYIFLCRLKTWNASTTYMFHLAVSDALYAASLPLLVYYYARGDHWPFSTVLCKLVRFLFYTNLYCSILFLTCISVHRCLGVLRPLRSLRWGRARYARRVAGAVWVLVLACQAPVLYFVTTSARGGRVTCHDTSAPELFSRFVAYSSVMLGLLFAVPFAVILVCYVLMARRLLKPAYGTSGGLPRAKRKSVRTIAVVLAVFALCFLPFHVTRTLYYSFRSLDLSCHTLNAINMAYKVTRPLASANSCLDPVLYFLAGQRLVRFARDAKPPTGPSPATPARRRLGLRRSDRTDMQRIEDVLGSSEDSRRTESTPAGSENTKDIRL
168 GPCRs (Homo sapiens, UniProt P30559), sequence (P30559 whole entry): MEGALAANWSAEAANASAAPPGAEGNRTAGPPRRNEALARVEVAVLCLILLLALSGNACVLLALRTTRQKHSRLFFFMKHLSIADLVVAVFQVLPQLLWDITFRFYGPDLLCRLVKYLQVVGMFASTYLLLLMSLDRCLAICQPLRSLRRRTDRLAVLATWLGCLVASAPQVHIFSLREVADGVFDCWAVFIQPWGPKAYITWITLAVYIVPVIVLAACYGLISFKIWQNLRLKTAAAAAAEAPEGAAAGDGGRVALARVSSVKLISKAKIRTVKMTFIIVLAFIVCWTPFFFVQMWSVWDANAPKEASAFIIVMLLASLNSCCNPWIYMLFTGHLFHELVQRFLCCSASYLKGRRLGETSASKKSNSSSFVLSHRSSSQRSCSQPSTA
168 GPCRs (Homo sapiens, UniProt P29371), sequence (P29371 whole entry): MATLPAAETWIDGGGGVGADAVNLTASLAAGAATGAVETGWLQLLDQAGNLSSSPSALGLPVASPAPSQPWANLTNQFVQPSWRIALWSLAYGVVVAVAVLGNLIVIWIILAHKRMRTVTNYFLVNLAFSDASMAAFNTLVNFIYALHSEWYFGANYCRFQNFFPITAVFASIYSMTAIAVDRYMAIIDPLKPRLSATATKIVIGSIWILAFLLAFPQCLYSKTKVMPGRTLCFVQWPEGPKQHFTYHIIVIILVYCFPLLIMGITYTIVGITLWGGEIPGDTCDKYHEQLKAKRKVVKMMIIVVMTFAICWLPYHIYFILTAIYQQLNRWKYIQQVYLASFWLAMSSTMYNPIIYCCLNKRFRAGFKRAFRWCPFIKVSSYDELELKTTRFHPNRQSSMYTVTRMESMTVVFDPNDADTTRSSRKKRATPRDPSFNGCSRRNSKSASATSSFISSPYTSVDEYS
168 GPCRs (Homo sapiens, UniProt P47872), sequence (P47872 23-440): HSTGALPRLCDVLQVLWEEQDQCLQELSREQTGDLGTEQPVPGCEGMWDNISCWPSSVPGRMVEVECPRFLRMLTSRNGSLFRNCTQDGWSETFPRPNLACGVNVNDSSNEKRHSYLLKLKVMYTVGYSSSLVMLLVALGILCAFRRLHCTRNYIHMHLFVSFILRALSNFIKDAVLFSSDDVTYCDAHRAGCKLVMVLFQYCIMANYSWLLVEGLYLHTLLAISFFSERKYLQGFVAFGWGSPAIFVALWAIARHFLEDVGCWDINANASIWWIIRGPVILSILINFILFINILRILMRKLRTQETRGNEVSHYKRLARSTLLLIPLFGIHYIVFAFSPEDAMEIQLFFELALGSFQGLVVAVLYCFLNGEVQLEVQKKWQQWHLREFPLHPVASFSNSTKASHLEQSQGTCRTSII
168 GPCRs (Homo sapiens, UniProt Q03431), sequence (Q03431 27-593): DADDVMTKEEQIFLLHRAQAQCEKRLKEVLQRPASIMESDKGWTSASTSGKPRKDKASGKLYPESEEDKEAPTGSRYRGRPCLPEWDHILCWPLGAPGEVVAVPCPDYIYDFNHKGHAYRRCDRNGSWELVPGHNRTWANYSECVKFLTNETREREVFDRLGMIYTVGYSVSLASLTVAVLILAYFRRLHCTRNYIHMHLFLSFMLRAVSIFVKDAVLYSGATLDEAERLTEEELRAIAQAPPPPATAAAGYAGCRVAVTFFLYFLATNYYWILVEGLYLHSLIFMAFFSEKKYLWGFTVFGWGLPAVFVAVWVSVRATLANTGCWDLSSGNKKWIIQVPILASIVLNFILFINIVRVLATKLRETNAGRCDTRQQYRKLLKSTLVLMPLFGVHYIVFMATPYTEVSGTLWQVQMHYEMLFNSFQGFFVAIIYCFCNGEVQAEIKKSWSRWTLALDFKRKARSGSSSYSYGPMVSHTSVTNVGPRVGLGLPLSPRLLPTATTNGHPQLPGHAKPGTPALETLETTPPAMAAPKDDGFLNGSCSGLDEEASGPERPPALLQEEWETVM
168 GPCRs (Homo sapiens, UniProt P49190), sequence (P49190 25-550): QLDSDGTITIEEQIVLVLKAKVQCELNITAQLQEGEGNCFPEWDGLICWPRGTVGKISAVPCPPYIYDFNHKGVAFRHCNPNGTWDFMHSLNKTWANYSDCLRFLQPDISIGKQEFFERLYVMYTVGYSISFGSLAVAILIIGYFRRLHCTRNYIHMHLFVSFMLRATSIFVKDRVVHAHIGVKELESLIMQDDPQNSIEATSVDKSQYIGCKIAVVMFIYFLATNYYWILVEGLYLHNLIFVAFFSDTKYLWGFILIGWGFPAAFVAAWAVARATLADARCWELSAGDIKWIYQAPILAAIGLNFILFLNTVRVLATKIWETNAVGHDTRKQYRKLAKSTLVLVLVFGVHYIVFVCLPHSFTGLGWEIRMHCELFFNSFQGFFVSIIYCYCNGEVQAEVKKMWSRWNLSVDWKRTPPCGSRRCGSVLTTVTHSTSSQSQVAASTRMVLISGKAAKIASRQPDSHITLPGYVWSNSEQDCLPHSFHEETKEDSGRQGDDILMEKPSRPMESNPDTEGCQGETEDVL

## CNC(C)C(=O)c1ccc2c(c1)OCO2 (stereo not drawn) [methylone, 3,4-methylenedioxy-N-methylcathinone]
[1]; Antagonist mode, 10 uM
  activity at 10 µM: -20.2%
[1]; Antagonist, 1 uM
  activity at 1 µM: -16.5%
[2]; Antagonist mode, 10 uM
  activity at 10 µM: 6.9%
[2]; Antagonist, 1 uM
  activity at 1 µM: 12.7%
[3]; PTHR2, Antagonist mode, 10 uM
  activity at 10 µM: -0.2%
[3]; PTHR2, Antagonist, 1 uM
  activity at 1 µM: -1%
[4]
  activity at 1 µM: -11.6%
[5]; TACR3, Antagonist mode, 10 uM
  activity at 10 µM: -14.3%
[5]; TACR3, Antagonist, 1 uM
  activity at 1 µM: -3.9%
[6]; CXCR1, Antagonist mode, 10 uM
  activity at 10 µM: 3.1%
[6]; CXCR1, Antagonist, 1 uM
  activity at 1 µM: 12.1%
[7]; 1 and 10 micromolar
  antagonist activity at any of the 168 GPCRs (criterion >50% inhibition): did not meet criteria for agonist or antagonist activity
[7]; DRD2S, Antagonist mode, 10 uM
  % Activity: −11.6%
[7]; DRD2S, Antagonist, 1 uM
  % Activity: 3.6%
[7]; NPSR1b, Antagonist mode, 10 uM
  % Activity: −7.6%
[7]; NPSR1b, Antagonist, 1 uM
  % Activity: −10.6%
[8]; 1 uM
  activity at 1 µM: 13.6%
[8]; 10 uM
  activity at 10 µM: 12.5%
[9]; Antagonist mode, 10 uM
  activity at 10 µM: 11.2%
[9]; Antagonist, 1 uM
  activity at 1 µM: 13.8%
[10]; NTSR1, Antagonist mode, 10 uM
  activity at 10 µM: -1.7%
[10]; NTSR1, Antagonist, 1 uM
  activity at 1 µM: -0.7%
[11]; Antagonist mode, 10 uM
  activity at 10 µM: -5.1%
[11]; Antagonist, 1 uM
  activity at 1 µM: -1%
[12]; Antagonist mode, 10 uM
  activity at 10 µM: 2.5%
[12]; Antagonist, 1 uM
  activity at 1 µM: 5.3%
[13]; PTHR1, Antagonist mode, 10 uM
  activity at 10 µM: -8.3%
[13]; PTHR1, Antagonist, 1 uM
  activity at 1 µM: 2.2%
[14]; NPBWR1, Antagonist mode, 10 uM
  activity at 10 µM: 25.1%
[14]; NPBWR1, Antagonist, 1 uM
  activity at 1 µM: 17.1%
[15]; CRTH2, Antagonist mode, 10 uM
  activity at 10 µM: 8.9%
[15]; CRTH2, Antagonist, 1 uM
  activity at 1 µM: 9%
[16]; VIPR2, Antagonist mode, 10 uM
  activity at 10 µM: -2.6%
[16]; VIPR2, Antagonist, 1 uM
  activity at 1 µM: -1.5%
[17]; Antagonist mode, 10 uM
  activity at 10 µM: 15.8%
[17]; Antagonist, 1 uM
  activity at 1 µM: 17.8%
[18]; PROKR1, Antagonist mode, 10 uM
  activity at 10 µM: 3.3%
[18]; PROKR1, Antagonist
  % Activity: 8.7%
[19]; P2RY2, Antagonist mode, 10 uM
  activity at 10 µM: 1.8%
[19]; P2RY2, Antagonist, 1 uM
  activity at 1 µM: 5.4%
[20]; Antagonist mode, 10 uM
  activity at 10 µM: 13.2%
[20]; Antagonist, 1 uM
  activity at 1 µM: 7.6%
